Assay results taken from ChEMBL document CHEMBL1135287, “Anisylazoformylarginine: a superior assay substrate for carboxypeptidase B type enzymes” (Bioorg Med Chem Lett, 2002).

Columns and labels:
Sus scrofa [1] = species: Sus scrofa; assay: Kinetic constant in the presence of porcine carboxypeptidase B
Sus scrofa [2] = species: Sus scrofa; assay: Specificity constant kcat/Km was obtained at pH of 7.9, 25 degree C by the porcine carboxypeptidase B

Compound: COc1ccc(/N=N/C(=O)N[C@@H](CCCN=C(N)N)C(=O)O)cc1
- Km (Sus scrofa [1]): 44 µM
- k cat (Sus scrofa [1]): 44 s⁻¹
- k cat/Km (Sus scrofa [2]): 1e+06 M⁻¹ s⁻¹
